Experimental data as given in US10662138B2, “Herbicidal propynyl-phenyl compounds” (Syngenta Participations AG, priority 2014, dated 2020).

Experiments:
Format in all cases: in vivo
Echinochloa crus-galli = test: Glasshouse assay for herbicidal activity, post-emergence, ECHCG; details: visual 13 days after application, 100%=total damage; for pest or weed control at 30 g/ha / pest or weed control at 250 g/ha: Echinochloa crus-galli, 312 h, read-out: Percentage phytotoxicity ECHCG
Experimental: (§1) Seeds of a variety of test plant species were sown in standard soil ** in pots. After cultivation for one day (pre-emergence) or after 8 days cultivation (post-emergence) under controlled conditions in a glasshouse (at 24/16° C., day/night; 14 hours light; 65% humidity), the plants were sprayed with an aqueous spray solution derived from the formulation of the technical active ingredient (the test herbicide) in acetone/water (50:50) solution containing 0.5% Tween 20 (polyoxyethylene sorbitan monolaurate, CAS Reg. No. 9005-64-5). The test plants were then grown on under controlled conditions in a glasshouse (at 24/16° C., day/night; 14 hours light; 65% humidity) and watered twice daily. 13 Days after application of the test herbicide, for pre- and post-emergence, the test was evaluated visually for percentage phytotoxicity to each plant (where 100%=total damage to plant; 0%=no damage to plant). Generally, each test herbicide is only tested on 1 plant per plant species for each application rate tested and for each application timing. The “standard soil” in Biological Example 1 is usually a “sand” or “sandy loam” type of soil. Biological Example 1—Post-Emergence Application—Herbicidal Activity Results (Percentage Phytotoxicity) Dicotyledonous weeds: ABUTH=Abutilon theophrasti; AMARE=Amaranthus retroflexus. Grassy monocotyledonous weeds: SETFA=Setaria faberi; ALOMY=Alopecurus myosuroides; ECHCG=Echinochloa crus-galli; ZEAMX=Zea mays (corn, maize, e.g. volunteer corn).

Setaria faberi = test: Glasshouse assay for herbicidal activity, post-emergence, SETFA; details: visual 13 days after application, 100%=total damage; for pest or weed control at 30 g/ha / pest or weed control at 250 g/ha: Setaria faberi, 312 h, read-out: Percentage phytotoxicity SETFA
Experimental: as §1

[1] = test system: Zea mays (corn, maize, e.g. volunteer corn); test: Glasshouse assay for herbicidal activity, post-emergence, ZEAMX; details: visual 13 days after application, 100%=total damage; for pest or weed control at 30 g/ha / pest or weed control at 250 g/ha: Zea mays, 312 h, read-out: Percentage phytotoxicity ZEAMX
Experimental: as §1

Alopecurus myosuroides = test: Glasshouse assay for herbicidal activity, post-emergence, ALOMY; details: visual 13 days after application, 100%=total damage; for pest or weed control at 30 g/ha / pest or weed control at 250 g/ha: Alopecurus myosuroides, 312 h, read-out: Percentage phytotoxicity ALOMY
Experimental: as §1

Abutilon theophrasti = test: Glasshouse assay for herbicidal activity, post-emergence, ABUTH; details: visual 13 days after application, 100%=total damage; for pest or weed control at 30 g/ha / pest or weed control at 250 g/ha: Abutilon theophrasti, 312 h, read-out: Percentage phytotoxicity ABUTH
Experimental: as §1

Amaranthus retroflexus = test: Glasshouse assay for herbicidal activity, post-emergence, AMARE; details: visual 13 days after application, 100%=total damage; for pest or weed control at 30 g/ha / pest or weed control at 250 g/ha: Amaranthus retroflexus, 312 h, read-out: Percentage phytotoxicity AMARE
Experimental: as §1

Row | Compound | Percentage phytotoxicity ECHCG (Echinochloa crus-galli; 250 g/ha) [%] | Percentage phytotoxicity SETFA (Setaria faberi; 250 g/ha) [%] | Percentage phytotoxicity ZEAMX ([1]; 250 g/ha) [%] | Percentage phytotoxicity ALOMY (Alopecurus myosuroides; 250 g/ha) [%] | Percentage phytotoxicity ABUTH (Abutilon theophrasti; 250 g/ha) [%] | Percentage phytotoxicity AMARE (Amaranthus retroflexus; 250 g/ha) [%] | pest or weed control at 30 g/ha (Echinochloa crus-galli) [%] | pest or weed control at 250 g/ha (Echinochloa crus-galli; 250 g/ha) [%] | pest or weed control at 30 g/ha (Setaria faberi) [%] | pest or weed control at 250 g/ha (Setaria faberi; 250 g/ha) [%] | pest or weed control at 30 g/ha [1] [%] | pest or weed control at 250 g/ha ([1]; 250 g/ha) [%] | pest or weed control at 30 g/ha (Alopecurus myosuroides) [%] | pest or weed control at 250 g/ha (Alopecurus myosuroides; 250 g/ha) [%] | pest or weed control at 30 g/ha (Abutilon theophrasti) [%] | pest or weed control at 250 g/ha (Abutilon theophrasti; 250 g/ha) [%] | pest or weed control at 30 g/ha (Amaranthus retroflexus) [%] | pest or weed control at 250 g/ha (Amaranthus retroflexus; 250 g/ha) [%]
1 | 4-(2,6-Dimethoxy-4-prop-1-ynyl-phenyl)-2,2,6,6-tetramethyl-tetrahydropyran-3,5-dione [Compound A2] | 70 | 90 | 70 | 90 | 10 | 0 |  |  |  |  |  |  |  |  |  |  |  | 
2 | CC#Cc1ccc(C2C(=O)C3CCC(C3)C2=O)c(OC)c1 (centres unmarked) [Compound A1, 3-(2-methoxy-4-prop-1-ynyl-phenyl)bicyclo[3.2.1]octane-2,4-dione] |  |  |  |  |  |  | 100 | 100 | 90 | 100 | 100 | 100 | 100 | 100 | 10 | 20 | 30 | 50
3 | CC#Cc1cc(OC)c(C2C(=O)C3CCC(C3)C2=O)c(C(F)(F)F)c1 (centres unmarked) [Compound A3, 3-[2-methoxy-4-prop-1-ynyl-6-(trifluoromethyl)phenyl]bicyclo[3.2.1]octane-2,4-dione] |  |  |  |  |  |  | 70 | 100 | 70 | 90 | 90 | 90 | 40 | 70 | 0 | 0 | 0 | 0
4 | CC#Cc1ccc(C2C(=O)C3CCC(C3)C2=O)c(OCC(F)(F)F)c1 (centres unmarked) [Compound A4] |  |  |  |  |  |  | 20 | 40 | 40 | 70 | 30 | 60 | 10 | 30 | 0 | 0 | 0 | 0
5 | CC#Cc1ccc(C2C(=O)C3CCC(C3)C2=O)c(OC(F)F)c1 (centres unmarked) [Compound A5] |  |  |  |  |  |  | 90 | 100 | 60 | 90 | 100 | 100 | 50 | 80 | 0 | 0 | 0 | 0
6 | CC#Cc1ccc(C2C(=O)C3CCC(C3)C2=O)c(OCCC)c1 (centres unmarked) [Compound A6] |  |  |  |  |  |  | 40 | 70 | 10 | 50 | 40 | 80 |  |  | 0 | 0 | 0 | 0
7 | CC#Cc1cc(OC)c(C2C(=O)C3CCC(C3)C2=O)c(OC)c1 (centres unmarked) [Compound A7] |  |  |  |  |  |  | 100 | 100 | 100 | 100 | 100 | 100 | 90 | 100 | 0 | 10 | 0 | 0
8 | CC#Cc1ccc(C2C(=O)C3CCC(C3)C2=O)c(OC(F)(F)F)c1 (centres unmarked) [Compound A8] |  |  |  |  |  |  |  | 100 |  | 100 |  | 100 |  | 100 |  | 80 |  | 10
9 | CC#Cc1ccc(C2C(=O)CC(CCSC)CC2=O)c(OC)c1 (centres unmarked) [Compound A9] |  |  |  |  |  |  | 80 | 90 | 80 | 90 | 90 | 100 | 30 | 90 | 20 | 40 | 0 | 20
10 | CC#Cc1ccc(C2C(=O)CCCC2=O)c(OC)c1 [Compound A10] |  |  |  |  |  |  | 20 | 30 | 60 | 70 | 90 | 90 | 0 | 70 | 0 | 10 | 10 | 20
11 | CC#Cc1cc(OC)c(C2C(=O)CCCC2=O)c(OC)c1 [Compound A11, 2-(2,6-dimethoxy-4-prop-1-ynyl-phenyl)cyclohexane-1,3-dione] |  |  |  |  |  |  | 100 | 100 | 100 | 100 | 100 | 100 | 70 | 90 | 0 | 0 | 10 | 30
12 | CC#Cc1ccc(C2C(=O)CC3(CCOCC3)CC2=O)c(OC)c1 [Compound A12] |  |  |  |  |  |  | 100 | 100 | 100 | 100 | 100 | 100 | 90 | 100 | 0 | 20 | 0 | 30
13 | CC#Cc1ccc(C2C(=O)C3CCC(C3)C2=O)c(OCC)c1 (centres unmarked) [Compound A14] |  |  |  |  |  |  | 70 | 100 | 50 | 90 | 70 | 90 |  |  | 0 | 0 | 0 | 0
14 | CC#Cc1ccc(C2C(=O)C3CCC(C3)C2=O)c(OCCOC)c1 (centres unmarked) [Compound A15, 3-[2-(2-methoxyethoxy)-4-prop-1-ynyl-phenyl]bicyclo[3.2.1]octane-2,4-dione] |  |  |  |  |  |  | 10 | 40 | 50 | 80 | 40 | 80 | 10 | 20 | 0 | 0 | 0 | 0
15 | CC#Cc1ccc(C2C(=O)C3CCC(C3)C2=O)c(CCC)c1 (centres unmarked) [Compound A16, 3-(2-propyl-4-prop-1-ynyl-phenyl)bicyclo[3.2.1]octane-2,4-dione] |  |  |  |  |  |  |  | 100 |  | 100 |  | 100 |  | 100 |  | 0 |  | 0
16 | CC#Cc1ccc(C2C(=O)C3CCC(C3)C2=O)c(CC)c1 (centres unmarked) [Compound A17] |  |  |  |  |  |  |  | 100 |  | 90 |  | 100 |  | 100 |  | 50 |  | 0
